Results taken from patent US4262128A, “Nitrogen heterocycles” (Burroughs Wellcome Co., priority 1976, dated 1981).

What was measured:
[1] = tested on: human platelet rich plasma (PRP); assay: Inhibition of ADP-stimulated platelet aggregation (Born aggregometer); type: cell-based
Experimental: Aggregation of platelets in 1 ml. of fresh humam platelet rich plasma (PRP) was monitored in a Born aggregometer.
The compound to be tested was added to the PRP at the desired concentration, and the resulting mixture incubated at 37° C. for 1 minute after which platelet aggregation was stimulated by the addition of adenosine diphosphate (ADP) to a concentration of 5 μM.
The anti-aggregatory effect of the compound was assessed by measuring the percentage inhibition of platelet aggregation in the presence of the compound as compared when it was completely absent.

[2] = tested on: electrically-induced arterial thrombosis; assay: Electrically-induced arterial thrombosis in anaesthetised rabbits; type: in vivo, rabbit; details: intravenous infusion 250 μg/min
[3] = tested on: male normotensive rats Wistar (Charles River) strain; assay: Cardiovascular effects in rats (fall in blood pressure, anaesthetised normotensive rats); type: in vivo, rat; details: i.v.
Experimental: Male normotensive rats Wistar (Charles River) strain, (250-350 g) were anesthetised (chloroform) prior to cannulation of the left femoral vein and anaesthesia maintained by intravenous chloralose (60 mg/kg). Pulsatile blood pressure was recorded from the left femoral artery with an electronic transducer (Bell and Howell Type 4-327 L221) and integrated heart rate was measured with a cardiotachometer triggered from the arterial pressure waves.
The test compound was administered as a solution in physiological saline by intravenous injection via the femoral cannula. The responses recorded were allowed to return to the preinjection levels between successive administrations.

[4] = tested on: aspirin-induced gastric ulceration; assay: Aspirin-induced gastric ulceration / lesions in rats; type: in vivo, rat; details: for reduction of aspirin-induced gastric lesions: general statement, no dose
[5] = tested on: pentagastrin-induced gastric acid secretion; assay: Pentagastrin-induced gastric acid secretion in rats; type: in vivo, rat
dogs = assay: Urine volume in dogs, intravenous infusion; type: in vivo, dog
[6] = tested on: histamine-induced broncho-constriction; assay: Histamine-induced broncho-constriction; type: in vivo, guinea-pig
vascular smooth muscle = assay: Relaxation of vascular smooth muscle; details: similar to prostaglandin A and E series; general statement
rat = assay: Cardiovascular effects in the rat (blood pressure and heart rate, with and without propranolol or atropine); type: in vivo
[7] = Compound 14 (m.p. 96°-98°) 2 mg/kg i.v. with propranolol 3 mg/kg
[8] = Compound 14 (m.p. 96°-98°) 2 mg/kg i.v., no propranolol
[9] = Compound 14 (m.p. 96°-98°) 5 mg/kg i.v. with propranolol 3 mg/kg
[10] = Compound 14 (m.p. 96°-98°) 5 mg/kg i.v., no propranolol

Compound: CCCCCC(O)CCN1C(=O)NC(=O)C1CCCCCCC(=O)O (stereo not shown) [Compound 2 (m.p. 76°-78°), 5-(6-Carboxyhexyl)-1-(3-hydroxyoctyl)hydantoin]
- relative potency with respect to PGE1 (inhibition of platelet aggregation) [1]: 12.5 ×
- reduction of electrically-induced arterial thrombosis [2]: reduce electrically-induced arterial thrombosis

Compound: CCCCCC(O)CCN1C(=O)NC(=O)C1CCCCCCC(=O)O (stereo not shown) [Compound 2, 5-(6-Carboxyhexyl)-1-(3-hydroxyoctyl)hydantoin]
- Mean fall in blood pressure ([3]; 10 μg/kg): 14 mmHg
- Mean fall in blood pressure ([3]; 1 mg/kg): 42 mmHg
- reduction of aspirin-induced gastric lesions [4]: reduce the formation of aspirin-induced gastric lesions
- inhibition of pentagastrin-induced gastric acid secretion ([5]; general statement, no dose): inhibit pentagastrin-induced gastric acid secretion
- inhibition of pentagastrin-induced gastric acid secretion ([5]; intravenous dose of 30 μg/kg, rats): completely inhibited
- increase of urine volume (dogs): increase urine volume

Compound: CC(C)(C)C(O)CCN1C(=O)NC(=O)C1CCCCCCC(=O)O (stereo not shown) [Compound 4 (m.p. 144°-146°), 5-(6-Carboxyhexyl)-1-(3-hydroxy-4,4-dimethylpentyl)hydantoin]
- relative potency with respect to PGE1 (inhibition of platelet aggregation) [1]: 0.05 ×

Compound: CCCCCCC(O)CCN1C(=O)NC(=O)C1CCCCCCC(=O)O (stereo not shown) [Compound 6, 5-(6-Carboxyhexyl)-1-(3-hydroxynonyl)hydantoin]
- Mean fall in blood pressure ([3]; 3 mg/kg): 40 mmHg

Compound: CCCCC(C)(C)C(O)CCN1C(=O)NC(=O)C1CCCCCCC(=O)O (stereo not shown) [Compound 9, 5-(6-Carboxyhexyl)-1-(3-hydroxy-4,4-dimethyloctyl)hydantoin]
- Mean fall in blood pressure ([3]; 3 mg/kg): 22 mmHg
- antagonism of histamine induced broncho-constriction (PGE1-like) ([6]; general statement, no dose): mimics the effect of PGE1 of antagonising histamine induced broncho-constriction
- antagonism of histamine-induced broncho-constriction ([6]; intravenous injection 50 μg/kg, anaesthetised guinea-pigs): completely anatagonise
- relaxation of vascular smooth muscle (vascular smooth muscle): relaxation of vascular smooth muscle

Compound: O=C(O)CCCCCCC1C(=O)NC(=O)N1CCC(O)C1CCC1 (stereo not shown) [Compound 11 (114°-116°), 5-(6-Carboxyhexyl)-1-(3-hydroxy-3-cyclobutylpropyl)hydantoin]
- relative potency with respect to PGE1 (inhibition of platelet aggregation) [1]: 5.2 ×

Compound: O=C(O)CCCCCCC1C(=O)NC(=O)N1CCC(O)C1CCCC1 (stereo not shown) [Compound 12 (m.p. 116-117°), 5-(6-Carboxyhexyl)-1-(3-hydroxy-3-cyclopentylpropyl)hydantoin]
- inhibition at 0.0005 µg/mL ([1]; Homo sapiens, Platelet, 0.5 ng/ml, ADP 5 μM): 25%
- inhibition at 0.001 µg/mL ([1]; Homo sapiens, Platelet, 1.0 ng/ml, ADP 5 μM): 51%
- inhibition at 0.002 µg/mL ([1]; Homo sapiens, Platelet, 2.0 ng/ml, ADP 5 μM): 79%
- inhibition at 0.004 µg/mL ([1]; Homo sapiens, Platelet, 4.0 ng/ml, ADP 5 μM): 94%
- relative potency with respect to PGE1 (inhibition of platelet aggregation) [1]: 12.5 ×

Compound: O=C(O)CCCCCCC1C(=O)NC(=O)N1CCC(O)C1CCCCC1 (stereo not shown) [Compound 14 (m.p. 96°-98°), 5-(6-Carboxyhexyl)-1-(3-hydroxy-3-cyclohexylpropyl)hydantoin]
- relative potency with respect to PGE1 (inhibition of platelet aggregation) [1]: 16 ×
- hypotensive effect in the rat (rat; i.v., in words): substantial hypotensive effect
- tachycardia accompanying the hypotension (rat; i.v., in words): accompanied by tachycardia

Compound: O=C(O)CCCCCCC1C(=O)NC(=O)N1CCC(O)C1CCCCC1 (stereo not shown) [Compound 14, 5-(6-Carboxyhexyl)-1-(3-hydroxy-3-cyclohexylpropyl)hydantoin]
- Mean fall b.p. (±SD) (rat; [7]): 28 ± 5
- Mean rise hrt.rate (±S.D) (rat; [7]): 6.5 ± 3
- Mean fall b.p. (±SD) (rat; [8]): 28 ± 6.5
- Mean rise hrt.rate (±S.D) (rat; [8]): 44 ± 7
- Mean fall b.p. (±SD) (rat; [9]): 27 ± 7.5
- Mean rise hrt.rate (±S.D) (rat; [9]): 11.5 ± 2.5
- Mean fall b.p. (±SD) (rat; [10]): 34 ± 3
- Mean rise hrt.rate (±S.D) (rat; [10]): 47.5 ± 2.5

Compound: CCCCCC(=O)CCN1C(=O)N(C)C(=O)C1CCCCCCC(=O)O (stereo not shown) [Compound 90, 5-(6-Carboxyhexyl)-3-methyl-1-(3-oxooctyl)hydantoin]
- reduction of aspirin-induced gastric lesions [4]: reduce the formation of aspirin-induced gastric lesions
- protection against aspirin-induced gastric ulceration ([4]; oral dose of 1 mg/kg): 80%
- inhibition of pentagastrin-induced gastric acid secretion ([5]; general statement, no dose): inhibit pentagastrin-induced gastric acid secretion

Compound: CC(C)(Cc1ccccc1)C(O)CCN1C(=O)NC(=O)C1CCCCCCC(=O)O (stereo not shown) [Example 1, 5-(6-carboxyhexyl)-1-(3-hydroxy-4,4-dimethyl-5-phenylpentyl)-hydantoin]
- relaxation of vascular smooth muscle (vascular smooth muscle): relaxation of vascular smooth muscle

Compound: O=C(O)CCCCCCC1C(=O)NC(=O)N1CCCCOc1ccccc1 (stereo not shown) [Example 79b, 5-(6-carboxyhexyl)-1-(4-phenoxybutyl)hydantoin]
- reduction of aspirin-induced gastric lesions [4]: reduce the formation of aspirin-induced gastric lesions
- inhibition of pentagastrin-induced gastric acid secretion ([5]; general statement, no dose): inhibit pentagastrin-induced gastric acid secretion

Compound: CCCCCC(=O)CCN1C(=O)NC(=O)C1CCCCCCC(=O)O (stereo not shown) [Example 88, 5-(6-carboxyhexyl)-1-(3-oxooctyl)hydantoin]
- reduction of aspirin-induced gastric lesions [4]: reduce the formation of aspirin-induced gastric lesions
- inhibition of pentagastrin-induced gastric acid secretion ([5]; general statement, no dose): inhibit pentagastrin-induced gastric acid secretion

Compound: CCCCC[C@H](O)/C=C/[C@H]1[C@H](O)CC(=O)[C@@H]1CCCCCCC(=O)O [PGE1, reference compound]
- inhibition at 0.015 µg/mL ([1]; Homo sapiens, Platelet, 15 ng/ml, ADP 5 μM): 33%
- inhibition at 0.02 µg/mL ([1]; Homo sapiens, Platelet, 20 ng/ml, ADP 5 μM): 47%
- inhibition at 0.03 µg/mL ([1]; Homo sapiens, Platelet, 30 ng/ml, ADP 5 μM): 63%
- inhibition at 0.04 µg/mL ([1]; Homo sapiens, Platelet, 40 ng/ml, ADP 5 μM): 69%

Compound: CCCCC[C@H](O)/C=C/[C@H]1[C@H](O)CC(=O)[C@@H]1C/C=C\CCCC(=O)O [PGE2, reference compound]
- Mean fall in blood pressure ([3]; 4 μg/kg): 28 mmHg
- Mean fall in blood pressure ([3]; 16 μ/kg): 44 mmHg

Compound: CN1[C@@H]2CC[C@H]1C[C@@H](OC(=O)C(CO)c1ccccc1)C2 (stereo partly shown) [atropine, reference compound]
- effect of concurrent atropine on hypotensive effect of Compound 14 (rat; atropine 2 mg/kg i.v.): did not significantly affect
- effect of concurrent atropine on tachycardiac effect of Compound 14 (rat; atropine 2 mg/kg i.v.): did not significantly affect

Compound: CC(C)NCC(O)COc1cccc2ccccc12 (stereo not shown) [propranolol, reference compound]
- effect of concurrent propranolol on hypotensive action of Compound 14 (rat; concurrent dose of propranolol): without significantly effecting the hypotensive action
- effect of concurrent propranolol on tachycardia caused by Compound 14 (rat; concurrent dose of propranolol): considerably reduced the tachycardia
